Source: patent publication US20230357179A1, “RAF KINASE INHIBITORS AND METHODS OF USE THEREOF” (Deciphera Pharmaceuticals, LLC, priority 2021, published 2023)

Legend:
[1] = target: T1, A-Raf kinase (Homo sapiens, UniProt P10398, Y301D/Y302D); assay: Biochemical assay for A-Raf.1 (coupled pyruvate kinase/lactate dehydrogenase); conditions: read-out: ARAF.1 IC50
T1 construct: purchased Sigma
Procedure, shortened: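 A-Raf (5.55 nM) phosphorylating 30.1 nM MEK with 1 mM ATP was monitored by pyruvate kinase/lactate dehydrogenase-coupled NADH oxidation at 340 nm for 6 h at 30° C, in pH 7.5 Tris buffer with 15 mM MgCl2, 1% DMSO. Rates from 4–5 h gave percent inhibition; IC50 by four-parameter fit.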

[2] = target: T2, C-Raf kinase (Homo sapiens, UniProt P04049, Y340D/Y341D); assay: Biochemical assay for C-Raf.1 (coupled pyruvate kinase/lactate dehydrogenase); conditions: read-out: CRAF.1 IC50
T2 construct: Y340D,; GST (N); purchased Sigma
Procedure, shortened: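 C-Raf (0.43 nM) with MEK 30.1 nM and 1 mM ATP in Tris pH 7.5/MgCl2 buffer, activity coupled via PK/LDH to NADH oxidation (A340), 6 h at 30° C. Rates from 4–5 h window converted to % inhibition versus controls; IC50 by four-parameter fit, 1% DMSO.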

[3] = target: T3, B-Raf (V600E) kinase (Homo sapiens, UniProt P15056, V600E); assay: Biochemical assay for B-Raf (V600E).1 (coupled pyruvate kinase/lactate dehydrogenase); conditions: read-out: BRAF V600E.1 IC50
T3 construct: B-Raf (V600E) residues 416-766 with a; GST (N); purchased SignalChem
Procedure, shortened: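 0.03 nM B-Raf(V600E) phosphorylating 30.1 nM MEK at 1 mM ATP, pH 7.5, coupled to PK/LDH, with NADH oxidation followed at 340 nm for 6 h at 30 °C. Rates taken from the 3-4 h window. IC50 from a four-parameter fit of percent inhibition.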

[4] = system: A375 cells; assay: A375 cell proliferation assay (1), resazurin, 96-well; format: cell-based; conditions: Homo sapiens, A-375, inhibition of cell proliferation
Procedure, shortened: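 Viability was read by resazurin fluorescence at 540 nm excitation and 600 nm emission, using a 440 μM solution added for 5–6 h at the end of culture. IC50 came from the curve fit.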

T2 sequence (P04049 307-648 Y340D/Y341D): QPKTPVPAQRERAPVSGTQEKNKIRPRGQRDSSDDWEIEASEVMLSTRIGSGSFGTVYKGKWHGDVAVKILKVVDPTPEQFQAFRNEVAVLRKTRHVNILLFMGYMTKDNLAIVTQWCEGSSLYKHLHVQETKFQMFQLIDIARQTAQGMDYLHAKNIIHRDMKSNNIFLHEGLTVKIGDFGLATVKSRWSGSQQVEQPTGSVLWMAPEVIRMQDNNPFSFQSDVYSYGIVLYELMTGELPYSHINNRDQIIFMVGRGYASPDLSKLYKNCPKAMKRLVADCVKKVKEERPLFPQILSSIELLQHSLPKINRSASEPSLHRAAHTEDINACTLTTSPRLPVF
T1 sequence (P10398 with tags, fused parts or gaps Y301D/Y302D): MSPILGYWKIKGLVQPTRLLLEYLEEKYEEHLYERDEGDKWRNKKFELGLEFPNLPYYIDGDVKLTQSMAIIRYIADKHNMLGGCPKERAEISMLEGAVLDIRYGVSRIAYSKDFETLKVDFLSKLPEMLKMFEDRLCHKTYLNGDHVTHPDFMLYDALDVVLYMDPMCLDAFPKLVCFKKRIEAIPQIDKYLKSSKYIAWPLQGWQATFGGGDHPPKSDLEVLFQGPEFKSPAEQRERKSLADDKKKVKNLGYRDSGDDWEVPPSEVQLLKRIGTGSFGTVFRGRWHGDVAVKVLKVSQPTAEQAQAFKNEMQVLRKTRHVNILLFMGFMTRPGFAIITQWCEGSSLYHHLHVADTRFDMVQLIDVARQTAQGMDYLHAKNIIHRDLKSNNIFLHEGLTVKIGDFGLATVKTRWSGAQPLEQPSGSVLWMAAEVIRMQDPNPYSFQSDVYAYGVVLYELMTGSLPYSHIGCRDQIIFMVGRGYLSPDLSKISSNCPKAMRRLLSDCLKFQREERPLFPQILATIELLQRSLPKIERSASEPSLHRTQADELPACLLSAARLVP
T3 sequence (P15056 416-766 V600E): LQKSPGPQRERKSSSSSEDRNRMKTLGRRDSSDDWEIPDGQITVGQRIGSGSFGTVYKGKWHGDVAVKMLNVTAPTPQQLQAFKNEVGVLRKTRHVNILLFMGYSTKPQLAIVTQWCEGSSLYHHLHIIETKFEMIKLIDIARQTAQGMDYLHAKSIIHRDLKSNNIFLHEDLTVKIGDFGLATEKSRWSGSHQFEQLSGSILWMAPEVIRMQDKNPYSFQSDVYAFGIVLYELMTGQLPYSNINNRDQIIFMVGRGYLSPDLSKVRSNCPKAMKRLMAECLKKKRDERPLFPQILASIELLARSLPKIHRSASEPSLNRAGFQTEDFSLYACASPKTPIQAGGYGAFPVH

| IC50 [1] | IC50 [2] | IC50 [3] | IC50 [4] | Structure (SMILES) |
| --- | --- | --- | --- | --- |
| 500 to 1000 nM | ≤ 100 nM | ≤ 100 nM | 100 to 500 nM | Cc1ncc(NC(=O)NC2CC(C)(C)C2)cc1-c1cc(OCCO)nc(-c2ccnc(NC(=O)C3CC3)c2)c1 [Example 126] |
| > 1000 nM | ≤ 100 nM | ≤ 100 nM | 1000 to 10000 nM | COC(=O)Nc1cc(-c2nccc(-c3cc(NC(=O)NCCC(C)(C)OC)c(F)cc3C)n2)ccn1 [Example 129] |
| 500 to 1000 nM | ≤ 100 nM | ≤ 100 nM | 1000 to 10000 nM | Cc1cc(F)c(NC(=O)NCCC2(C)CC2)cc1-c1ccnc(-c2ccnc(NC(=O)C3CC3)c2)c1 [Example 134] |
| > 1000 nM | ≤ 100 nM | ≤ 100 nM | 1000 to 10000 nM | Cc1ncc(NC(=O)NCCC2(C)CC2)cc1-c1ccnc(-c2ccnc(NC(=O)C3(C#N)CC3)c2)c1 [Example 169] |
| > 1000 nM | ≤ 100 nM | ≤ 100 nM | 1000 to 10000 nM | Cc1ncc(NC(=O)NCCC2(C)CC2)cc1-c1ccnc(-c2ccnc(NC(=O)C3CC3)c2)c1 [Example 118] |
| > 1000 nM | 100 to 500 nM | ≤ 100 nM | 1000 to 10000 nM | COC(=O)Nc1cc(-c2cc(-c3cc(NC(=O)NCCC(C)(C)OC)c(F)cc3F)ccn2)ccn1 [Example 163] |
| > 1000 nM | ≤ 100 nM | ≤ 100 nM | 1000 to 10000 nM | COC(=O)Nc1cc(-c2cnnc(-c3cc(NC(=O)N4CCC(CC(F)(F)F)C4)c(F)cc3C)c2)ccn1 (centres unmarked) [Example 150] |
| > 1000 nM | ≤ 100 nM | ≤ 100 nM | 1000 to 10000 nM | COC(=O)Nc1cc(-c2cc(-c3cc(NC(=O)NCCC4(OC)CC4)c(F)cc3C)ccn2)ccn1 [Example 145] |
| 100 to 500 nM | ≤ 100 nM | ≤ 100 nM | 500 to 1000 nM | COC(C)(C)CCNC(=O)Nc1cc(-c2ccnc(-c3ccnc(NC(=O)C4CC4)c3)n2)c(C)cc1F [Example 108] |
| > 1000 nM | ≤ 100 nM | ≤ 100 nM | 1000 to 10000 nM | COC(C)(C)CCNC(=O)Nc1cnc(C)c(-c2cc(-c3ccnc(NC(=O)C4CC4)c3)cnn2)c1 [Example 121] |
| 100 to 500 nM | ≤ 100 nM | ≤ 100 nM | 1000 to 10000 nM | Cc1cc(F)c(NC(=O)NCCC(F)F)cc1-c1cc(OCCO)nc(-c2ccnc(NC(=O)C3CC3)c2)c1 [Example 105] |
| > 1000 nM | 500 to 1000 nM | ≤ 100 nM | 1000 to 10000 nM | COC(=O)Nc1cc(-c2cnnc(-c3cc(NC(=O)NCCC(C)(C)OC)cnc3C)c2)ccn1 [Example 153] |
| 500 to 1000 nM | ≤ 100 nM | ≤ 100 nM | 100 to 500 nM | Cc1cc(F)c(NC(=O)NCCC2(C)CC2)cc1-c1cnnc(-c2ccnc(NC(=O)C3CC3)c2)c1 [Example 168] |
| > 1000 nM | ≤ 100 nM | ≤ 100 nM | 1000 to 10000 nM | Cc1cc(F)c(NC(=O)NCCC(C)(C)F)cc1-c1cc(-c2ccnc(NC(=O)C3CC3)c2)cnn1 [Example 139] |
| > 1000 nM | 500 to 1000 nM | ≤ 100 nM | 1000 to 10000 nM | COC[C@H]1CCN(C(=O)Nc2cc(-c3cc(-c4ccnc(NC(=O)OC)c4)cnn3)c(C)cc2F)C1 [Example 148] |
| 500 to 1000 nM | ≤ 100 nM | ≤ 100 nM | 1000 to 10000 nM | Cc1cc(F)c(NC(=O)NCC(C)C)cc1-c1cc(OCCO)nc(-c2ccnc(NC(=O)C3CC3)c2)c1 [Example 99] |
| > 1000 nM | ≤ 100 nM | ≤ 100 nM | ≤ 100 nM | CNC(=O)c1cc(-c2cc(-c3cc(NC(=O)NCCC4(C)CC4)c(F)cc3C)cc(OCCO)n2)ccn1 [Example 164] |
| > 1000 nM | ≤ 100 nM | ≤ 100 nM | 1000 to 10000 nM | COC(=O)Nc1cc(-c2cc(-c3cc(NC(=O)NCCC(C)(C)C)cnc3C)ccn2)ccn1 [Example 109] |
| 500 to 1000 nM | ≤ 100 nM | ≤ 100 nM | 1000 to 10000 nM | Cc1ncc(NC(=O)NCCC2(C)CC2)cc1-c1ccnc(-c2ccnc(NC(=O)C3CC3)c2)n1 [Example 107] |
| 100 to 500 nM | ≤ 100 nM | ≤ 100 nM | 1000 to 10000 nM | Cc1cc(F)c(NC(=O)NCCC(C)(C)F)cc1-c1nccc(-c2ccnc(NC(=O)C3CC3)c2)n1 [Example 114] |
| > 1000 nM | ≤ 100 nM | ≤ 100 nM | 1000 to 10000 nM | Cc1cc(F)c(NC(=O)NC2CC3(COC3)C2)cc1-c1cc(OCCO)nc(-c2ccnc3[nH]ncc23)c1 [Example 101] |

| IC50 [1] | IC50 [2] | IC50 [3] | IC50 [4] | Structure (SMILES) |
| --- | --- | --- | --- | --- |
| 500 to 1000 nM | ≤ 100 nM | ≤ 100 nM | 100 to 500 nM | Cc1ncc(NC(=O)NCCC2(C)CC2)cc1-c1cc(OCCO)nc(-c2ccnc(NC(=O)C3CC3)c2)c1 [Example 113] |
| > 1000 nM | ≤ 100 nM | ≤ 100 nM | 1000 to 10000 nM | COC(=O)Nc1cc(-c2cc(-c3cc(NC(=O)NCCC4COC4)c(F)cc3C)cc(OCCO)n2)ccn1 [Example 155] |
| > 1000 nM | ≤ 100 nM | ≤ 100 nM | 1000 to 10000 nM | Cc1ncc(NC(=O)NC[C@H](O)C(C)(C)C)cc1-c1ccnc(-c2ccnc(NC(=O)C3CC3)c2)c1 [Example 102] |
| > 1000 nM | 100 to 500 nM | ≤ 100 nM | 1000 to 10000 nM | CNC(=O)c1cc(-c2cnnc(-c3cc(NC(=O)NCCC(C)(C)F)c(F)cc3C)c2)ccn1 [Example 132] |
| > 1000 nM | 100 to 500 nM | ≤ 100 nM | 1000 to 10000 nM | CNC(=O)c1cc(-c2cnnc(-c3cc(NC(=O)NCCC(C)(C)C)c(F)cc3C)c2)ccn1 [Example 119] |
| > 1000 nM | ≤ 100 nM | ≤ 100 nM | 1000 to 10000 nM | COC1(CCNC(=O)Nc2cnc(C)c(-c3ccnc(-c4ccnc(NC(=O)C5CC5)c4)n3)c2)CC1 [Example 137] |
| > 1000 nM | ≤ 100 nM | ≤ 100 nM | 1000 to 10000 nM | COC(=O)Nc1cc(-c2cc(-c3cc(NC(=O)N4CCC(C)(C)CC4)cnc3C)cc(OCCO)n2)ccn1 [Example 166] |
| > 1000 nM | ≤ 100 nM | ≤ 100 nM | 1000 to 10000 nM | COC(=O)Nc1cc(-c2cc(-c3cc(NC(=O)NC4CC(C)(C)C4)cnc3C)cc(OCCO)n2)ccn1 [Example 156] |
| 100 to 500 nM | ≤ 100 nM | ≤ 100 nM | 1000 to 10000 nM | Cc1cc(F)c(NC(=O)NCCC(C)(C)F)cc1-c1ccnc(-c2ccnc(NC(=O)C3CC3)c2)n1 [Example 128] |
| > 1000 nM | ≤ 100 nM | ≤ 100 nM | 100 to 500 nM | Cc1cc(F)c(NC(=O)NCCC(C)C)cc1-c1cc(OCCO)nc(-c2ccnc(NC(=O)C3CC3)c2)c1 [Example 106] |
| > 1000 nM | > 1000 nM | 100 to 500 nM | 1000 to 10000 nM | COC(=O)Nc1cc(-c2cc(-c3cc(NC(=O)NCCN4CCC4)c(F)cc3C)cc(OCCO)n2)ccn1 [Example 125] |
| > 1000 nM | > 1000 nM | ≤ 100 nM | 1000 to 10000 nM | CNC(=O)c1cc(-c2cnnc(-c3cc(NC(=O)NCCC(C)(C)OC)cnc3C)c2)ccn1 [Example 154] |
| > 1000 nM | ≤ 100 nM | ≤ 100 nM | 1000 to 10000 nM | COC(C)(C)CCNC(=O)Nc1cc(-c2cc(-c3ccnc(NC(=O)C4CC4)c3)cnn2)c(C)cc1F [Example 142] |
| > 1000 nM | ≤ 100 nM | ≤ 100 nM | 1000 to 10000 nM | Cc1ncc(NC(=O)NCCC(C)(C)F)cc1-c1ccnc(-c2ccnc(NC(=O)C3CC3)c2)n1 [Example 136] |
| > 1000 nM | 100 to 500 nM | ≤ 100 nM | 1000 to 10000 nM | COC(=O)Nc1cc(-c2nccc(-c3cc(NC(=O)NCCC4(OC)CC4)cnc3C)n2)ccn1 [Example 143] |
| 100 to 500 nM | ≤ 100 nM | ≤ 100 nM | 1000 to 10000 nM | Cc1cc(F)c(NC(=O)NCCC(C)(C)F)cc1-c1cccc(-c2cc(NC(=O)C3CC3)ncn2)c1 [Example 127] |
| > 1000 nM | 500 to 1000 nM | ≤ 100 nM | 1000 to 10000 nM | COC[C@@H]1CCN(C(=O)Nc2cc(-c3cc(-c4ccnc(NC(=O)OC)c4)cnn3)c(C)cc2F)C1 [Example 149] |
| > 1000 nM | ≤ 100 nM | ≤ 100 nM | 1000 to 10000 nM | Cc1ncc(NC(=O)NCCC2(C)CC2)cc1-c1cc(OCCO)nc(-c2ccnc3c2CC(=O)N3)c1 [Example 112] |
| 500 to 1000 nM | ≤ 100 nM | ≤ 100 nM | ≤ 100 nM | Cc1cc(F)c(NC(=O)NC2CC(C)(C)C2)cc1-c1cc(OCCO)nc(-c2ccnc(NC(=O)C3CC3)c2)n1 [Example 167] |
| 100 to 500 nM | ≤ 100 nM | ≤ 100 nM | 1000 to 10000 nM | COC1(CCNC(=O)Nc2cc(-c3cccc(-c4cc(NC(=O)C5CC5)ncn4)c3)c(C)cc2F)CC1 [Example 104] |
